Among the data in article PMC12340436 (The Journal of Biological Chemistry, 2025) are Kd values, retold here.

Assay [1] has as its target T1, RhsP2tox (Pseudomonas aeruginosa, UniProt A0A0H2Z8A2).
T1 construct: gene PA14_43100; N-terminal His tag
It is filed as binding.

Assay [2] concerns the target T2, RhsP2tox (Pseudomonas aeruginosa, UniProt A0A0H2Z8A2, E1576Q).
T2 construct: gene PA14_43100
Kind of assay: biochemical.

SMILES strings stand for the structures.

For the molecule `NC(=O)c1ccc[n+]([C@@H]2O[C@H](COP(=O)(O)OP(=O)(O)OC[C@H]3O[C@@H](n4cnc5c(N)ncnc54)[C@H](O)[C@@H]3O)[C@@H](O)[C@H]2O)c1` [NAD^+], the values for the Kd at RhsP2tox [1] and at RhsP2tox [2] were 172 ± 25 µM and 130 ± 38 µM, respectively.
